The values below come from patent US10130615B2, “Benzomorphan analogs and the use thereof” (priority 2014, dated 2018).

The target in assay [1] is T1, μ-opioid receptor (Homo sapiens, UniProt P35372). Kind of assay: biochemical. As to conditions: HEK-293 or CHO cells; for Emax: relative to DAMGO, read-out: GTPγS μ Emax; for EC50: read-out: GTPγS μ EC50. Set-up: purchased Perkin Elmer, Shelton, Conn; host or cells: HEK-293 or CHO.
In assay [2] the target is T2, κ-opioid receptor (Homo sapiens, UniProt P41145). As to the kind of experiment: κ-opioid receptor radioligand binding assay ([3H]-U69,593). As to conditions: HEK-293 or CHO cells; read-out: Ki (nM) Opioid Receptor κ. Further details: expressed in transfected cells; host or cells: HEK-293. On the procedure: κ-opioid Receptor Binding Assay Procedures: Membranes from recombinant HEK-293 cells expressing the human κ opioid receptor (κ) (cloned in house) were prepared by lysing cells in ice cold hypotonic buffer (2.5 mM MgCl2, 50 mM HEPES, pH 7.4) (10 mL/10 cm dish) followed by homogenization with a tissue grinder/Teflon pestle. Membranes were collected by centrifugation at 30,000×g for 15 min at 4° C. and pellets were resuspended in hypotonic buffer to a final concentration of 1-3 mg/mL. Protein concentrations were determined using the BioRad protein assay reagent with bovine serum albumen as standard. Aliquots of κ receptor membranes were stored at −80° C.
Radioligand dose displacement assays used 0.4 nM [^3H]-U69,593 (GE Healthcare, Piscataway, N.J.; 40 Ci/mmole) with 15 μg membrane protein (recombinant κ opioid receptor expressed in HEK 293 cells; in-house prep) in a final volume of 200 μl binding buffer (5% DMSO, 50 mM Trizma base, pH 7.4). Non-specific binding was determined in the presence of 10 μM unlabeled naloxone or U69,593. All reactions were performed in 96-well polypropylene plates for 1 hr at a temperature of about 25° C.

Assay [3] has as its target T2, κ-opioid receptor. Kind of assay: κ-opioid receptor [35S]GTPγS functional assay, HEK-293 or CHO cells. The assay is classed as biochemical. As to conditions: HEK-293 or CHO cells; for EC50: read-out: GTPγS κ EC50; for Emax: relative to U69,593. Set-up: expressed in transfected cells; host or cells: HEK-293. As to the method: (§1) Plates were incubated for 30 min at a temperature of about 25° C. with shaking.

The target of assay [4] is T2, κ-opioid receptor. As to the kind of experiment: κ-opioid receptor GTPγS functional assay, U2OS cells. The assay is classed as biochemical. Set-up: expressed in transfected cells; host or cells: U-2 OS. As to conditions: U2OS cells; for EC50: read-out: GTPγS κ EC50. On the procedure: as §1
For assay [5], the target named is T1, μ-opioid receptor. Kind of assay: μ-opioid receptor radioligand binding assay ([3H]-diprenorphine). Further details: purchased Perkin Elmer, Shelton, Conn; host or cells: HEK-293 or CHO. As to conditions: HEK-293 or CHO cells; read-out: Ki (nM) Opioid Receptor μ. As to the method: μ-opioid Receptor Binding Assay Procedures: Radioligand dose-displacement binding assays for μ-opioid receptors used 0.3 nM [^3H]-diprenorphine (Perkin Elmer, Shelton, Conn.), with […] membrane protein/well in a final volume of 500 μl binding buffer (10 mM MgCl2, 1 mM EDTA, 5% DMSO, 50 mM HEPES, pH 7.4). Reactions were carried out in the absence or presence of increasing concentrations of unlabeled naloxone. All reactions were conducted in 96-deep well polypropylene plates for 2 hr at room temperature. […] The data were analyzed using the one-site competition curve fitting functions in GraphPad PRISM™ v. 3.0 or higher (San Diego, Calif.), or an in-house function for one-site competition curve-fitting.

In assay [6] the target is T2, κ-opioid receptor. Kind of assay: κ-opioid receptor β-Arr2 activity response, U2OS cells. Further details: expressed in transfected cells; host or cells: U-2 OS. As to conditions: U2OS cells; for EC50: read-out: β-Arr2 κ EC50. The assay is classed as cell-based.
In assay [7] the target is T1, μ-opioid receptor. Kind of assay: μ-opioid receptor GTPγS functional assay, U2OS cells. As to conditions: for Emax: read-out: GTPγS μ Emax.
In assay [8] the target is T1, μ-opioid receptor. As to the kind of experiment: cell-based. As to conditions: U2OS cells; for Emax: read-out: β-Arr2 μ Emax. Further details: purchased Perkin Elmer, Shelton, Conn.

T1 sequence (P35372 whole entry, species assumed): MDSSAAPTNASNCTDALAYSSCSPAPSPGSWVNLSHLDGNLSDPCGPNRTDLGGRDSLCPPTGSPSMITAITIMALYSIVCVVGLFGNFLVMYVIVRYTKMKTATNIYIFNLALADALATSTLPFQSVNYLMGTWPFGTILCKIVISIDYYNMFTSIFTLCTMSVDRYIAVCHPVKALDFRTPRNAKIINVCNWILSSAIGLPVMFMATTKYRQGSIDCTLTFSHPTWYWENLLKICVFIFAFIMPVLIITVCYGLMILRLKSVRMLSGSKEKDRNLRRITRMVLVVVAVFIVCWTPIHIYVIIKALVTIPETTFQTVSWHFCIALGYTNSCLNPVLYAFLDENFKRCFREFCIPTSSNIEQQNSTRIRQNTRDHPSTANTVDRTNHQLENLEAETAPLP
T2 sequence (P41145 whole entry): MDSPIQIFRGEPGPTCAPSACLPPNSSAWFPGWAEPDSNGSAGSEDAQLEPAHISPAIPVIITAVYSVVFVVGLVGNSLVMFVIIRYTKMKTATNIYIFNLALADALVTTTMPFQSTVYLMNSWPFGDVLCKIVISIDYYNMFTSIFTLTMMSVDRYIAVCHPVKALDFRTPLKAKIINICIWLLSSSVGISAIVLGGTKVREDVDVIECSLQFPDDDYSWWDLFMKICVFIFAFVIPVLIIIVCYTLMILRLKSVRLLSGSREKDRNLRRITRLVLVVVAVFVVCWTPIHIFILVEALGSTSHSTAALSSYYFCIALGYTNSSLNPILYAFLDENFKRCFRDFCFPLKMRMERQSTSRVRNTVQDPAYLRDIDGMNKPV

Turning to `C[C@H]1[C@H]2Cc3ccc(O)cc3[C@]1(CCCCN[C@@H](Cc1ccccc1)C(N)=O)CCN2CC1CC1` [Compound 23, (S)-2-((4-((2R,6R,11R)-3-(cyclopropyl-methyl)-8-hydroxy-11-methyl-2,3,4,5-tetrahydro-2,6-methanobenzo[d]azocin-6(1H)-yl)butyl)amino)-3-phenyl-propanamide], the Emax was 1% at μ-opioid receptor [1]; 99 ± 6.35% on κ-opioid receptor [3]; 104 ± 4.06% on κ-opioid receptor [4]; 30 ± 0.58% at κ-opioid receptor [6]; 56 ± 3.06% at μ-opioid receptor [7]; -1.5% at μ-opioid receptor [8]. In addition, the Ki at κ-opioid receptor [2] is 0.048 ± 0.01 nM; at μ-opioid receptor [5] it was 0.2 ± 0.012 nM. Besides, the EC50 at κ-opioid receptor [3] came to 1.49 ± 0.58 nM; on κ-opioid receptor [4], 0.079 ± 0.01 nM; on κ-opioid receptor [6] it was 0.16 ± 0.055 nM; on μ-opioid receptor [7] it was 0.28 ± 0.073 nM.

For `CC(C)C[C@H](NCCCC[C@]12CCN(CC3CC3)[C@H](Cc3ccc(O)cc31)[C@@H]2C)C(=O)O` [Compound 24, (4-((2R,6R,11R)-3-(cyclopropyl-methyl)-8-hydroxy-11-methyl-2,3,4,5-tetrahydro-2,6-methanobenzo[d]azocin-6(1H)-yl)butyl)-L-leucine], the EC50 at μ-opioid receptor [1] worked out at 5.46 ± 0.51 nM; on κ-opioid receptor [3] it was 9.32 ± 2.97 nM; on κ-opioid receptor [4], 0.51 ± 0.072 nM; at κ-opioid receptor [6], 3.56 ± 0.91 nM; on μ-opioid receptor [7], 1.94 ± 0.28 nM. Besides, the Emax was 19.5 ± 2.26% at μ-opioid receptor [1]; 102 ± 5.57% on κ-opioid receptor [3]; 98.3 ± 4.33% on κ-opioid receptor [4]; 54 ± 4.06% on κ-opioid receptor [6]; 77.3 ± 3.18% on μ-opioid receptor [7]; -0.4 ± 0.6% at μ-opioid receptor [8]. The Ki on κ-opioid receptor [2] stood at 0.55 ± 0.11 nM; on μ-opioid receptor [5], 2.89 ± 0.63 nM.

For `C[C@H]1[C@H]2Cc3ccc(O)cc3[C@]1(CCCCN[C@@H](CCCCN)C(=O)O)CCN2CC1CC1` [Compound 25, (4-((2R,6R,11R)-3-(cyclopropyl-methyl)-8-hydroxy-11-methyl-2,3,4,5-tetrahydro-2,6-methanobenzo[d]azocin-6(1H)-yl)butyl)-L-lysine], the Emax at μ-opioid receptor [1] was 1%; on κ-opioid receptor [3] it was 104 ± 5.03%; at κ-opioid receptor [4], 99 ± 4.58%; on κ-opioid receptor [6] it was 50 ± 0.58%; at μ-opioid receptor [7], 48.3 ± 0.67%; on μ-opioid receptor [8], -1.4%. In addition, the Ki on κ-opioid receptor [2] was 0.077 ± 0.014 nM; at μ-opioid receptor [5], 3.58 ± 1.45 nM. The half-maximal effective concentration (EC50) worked out at 2.33 ± 0.51 nM on κ-opioid receptor [3], 0.17 ± 0.038 nM at κ-opioid receptor [4], 0.1 ± 0.019 nM at κ-opioid receptor [6] and 1.29 ± 0.11 nM at μ-opioid receptor [7].

Regarding `COC(=O)[C@H](CCCCN)NCCCC[C@]12CCN(CC3CC3)[C@H](Cc3ccc(O)cc31)[C@@H]2C` [Compound 26, methyl (4-((2R,6R,11R)-3-(cyclopropyl-methyl)-8-hydroxy-11-methyl-2,3,4,5-tetrahydro-2,6-methanobenzo[d]azocin-6(1H)-yl)butyl)-L-lysinate], the Emax at μ-opioid receptor [1] was determined as 0.33 ± 0.67%; on κ-opioid receptor [3], 51 ± 2.04%; at κ-opioid receptor [4] it was 102 ± 3.48%; at κ-opioid receptor [6], 17.5 ± 2.72%; at μ-opioid receptor [7], 40 ± 1.73%; at μ-opioid receptor [8], 0%. For the same compound, the inhibition constant (Ki) at κ-opioid receptor [2] was 0.053 nM; at μ-opioid receptor [5] it was 0.73 ± 0.1 nM. Moreover, the half-maximal effective concentration (EC50) at κ-opioid receptor [3] turned out to be 0.19 ± 0.058 nM; on κ-opioid receptor [4] it was 0.14 nM; on κ-opioid receptor [6], 0.081 ± 0.019 nM; at μ-opioid receptor [7] it was 0.51 ± 0.054 nM.

For `COC(=O)[C@H](Cc1ccccc1)NCCCC[C@]12CCN(CC3CC3)[C@H](Cc3ccc(O)cc31)[C@@H]2C` [Compound 27], the Emax on μ-opioid receptor [1] is 1%; at κ-opioid receptor [3], 61.7 ± 4.33%; on κ-opioid receptor [4], 106 ± 7.13%; at κ-opioid receptor [6], 12.7 ± 1.86%; on μ-opioid receptor [7], 22.3 ± 2.85%; at μ-opioid receptor [8] it was 1%. Further, the Ki on κ-opioid receptor [2] stood at 0.054 ± 0.01 nM; on μ-opioid receptor [5] it was 0.071 ± 0.021 nM. Besides, the EC50 was found to be 0.6 ± 0.12 nM on κ-opioid receptor [3], 0.15 ± 0.023 nM at κ-opioid receptor [4], 0.27 ± 0.11 nM at κ-opioid receptor [6] and 0.27 ± 0.058 nM at μ-opioid receptor [7].

Turning to `C[C@H]1[C@H]2Cc3ccc(O)cc3[C@]1(CCCC(=O)N(C)C)CCN2CC1CCC1` [Compound 28, 4-((2R,6R,11R)-3-(cyclobutylmethyl)-8-hydroxy-11-methyl-2,3,4,5-tetrahydro-2,6-methanobenzo[d]azocin-6(1H)-yl)-N,N-dimethylbutanamide], the Emax stood at 1% on μ-opioid receptor [1]; 95.3 ± 1.45% at κ-opioid receptor [3]; 104 ± 2.85% on κ-opioid receptor [4]; 45 ± 2.08% on κ-opioid receptor [6]; 57.3 ± 6.57% at μ-opioid receptor [7]; 3.7 ± 0.49% on μ-opioid receptor [8]. Also, the inhibition constant Ki at κ-opioid receptor [2] was found to be 0.22 ± 0.056 nM; on μ-opioid receptor [5], 1.45 ± 0.013 nM. The EC50 at κ-opioid receptor [3] was 4.58 ± 0.38 nM; at κ-opioid receptor [4], 0.49 ± 0.016 nM; on κ-opioid receptor [6], 2.37 ± 0.62 nM; at μ-opioid receptor [7] it was 2.71 ± 0.67 nM; at μ-opioid receptor [8] (read-out: β-Arr2 μ EC50) it was 30.5 ± 4.44 nM.

Turning to `C[C@H]1[C@H]2Cc3ccc(O)cc3[C@]1(CCCC(N)=O)CCN2CC1CCC1` [Compound 29, 4-((2R,6R,11R)-3-(cyclobutylmethyl)-8-hydroxy-11-methyl-2,3,4,5-tetrahydro-2,6-methanobenzo[d]azocin-6(1H)-yl)butanamide], the Emax at μ-opioid receptor [1] was 1%; on κ-opioid receptor [3], 87.7 ± 3.18%; on κ-opioid receptor [4], 108 ± 1.2%; on κ-opioid receptor [6], 45 ± 3%; on μ-opioid receptor [7], 41.3 ± 4.91%; on μ-opioid receptor [8], -1.5%. The Ki was 0.12 ± 0.019 nM on κ-opioid receptor [2] and 1.82 ± 0.57 nM on μ-opioid receptor [5]. In addition, the EC50 at κ-opioid receptor [3] was 7.6 ± 1.67 nM; on κ-opioid receptor [4], 0.39 ± 0.016 nM; at κ-opioid receptor [6] it was 2.06 ± 0.32 nM; on μ-opioid receptor [7] it was 2.65 ± 0.89 nM.

As to `COC(=O)c1ccc(CC(=O)NCC[C@]23CCN(CC4CC4)[C@H](Cc4ccc(OC)cc42)[C@@H]3C)cc1` [Compound 30, methyl 4-(2-((2-((2R,6R,11R)-3-(cyclopropylmethyl)-8-methoxy-11-methyl-2,3,4,5-tetrahydro-2,6-methano-benzo[d]azocin-6(1H)-yl)ethyl)amino)-2-oxoethyl)benzoate], the Emax on μ-opioid receptor [1] was 0%; at κ-opioid receptor [3], 83 ± 7.77%; on κ-opioid receptor [4] it was 104 ± 2.96%; on κ-opioid receptor [6], -1%; on μ-opioid receptor [7], 51 ± 3.51%; at μ-opioid receptor [8], 1 ± 0.5%. For the same compound, the Ki on κ-opioid receptor [2] came out at 6.18 ± 1.72 nM; at μ-opioid receptor [5], 389 ± 124 nM. The results for the EC50 on κ-opioid receptor [3], on κ-opioid receptor [4] and at μ-opioid receptor [7] were 259 ± 33.1 nM, 13.1 ± 1.48 nM and 230 ± 27.5 nM, respectively.

Regarding `COc1ccc2c(c1)[C@]1(CCNC(=O)CN)CCN(CC3CC3)[C@H](C2)[C@@H]1C` [Compound 33, 2-amino-N-(2-((2R,6R,11R)-3-(cyclopropylmethyl)-8-methoxy-11-methyl-2,3,4,5-tetrahydro-2,6-methanobenzo[d]azocin-6(1H)-yl)ethyl)acetamide], the EC50 at μ-opioid receptor [1] was found to be 356 ± 111 nM; at κ-opioid receptor [3] it was 61.2 ± 20.1 nM; on κ-opioid receptor [4] it was 4.93 ± 1.06 nM; at κ-opioid receptor [6] it was 12.8 ± 4.1 nM; at μ-opioid receptor [7], 1170 ± 247 nM. Moreover, the Emax is 92.7 ± 6.57% at μ-opioid receptor [1]; 113 ± 1% at κ-opioid receptor [3]; 108 ± 3.38% at κ-opioid receptor [4]; 42 ± 4% at κ-opioid receptor [6]; 56 ± 3.06% at μ-opioid receptor [7]. Further, the Ki at κ-opioid receptor [2] is 1.04 ± 0.071 nM; on μ-opioid receptor [5], 936 ± 189 nM.

Broadly, the Emax is the greatest response seen or fitted, relative to the assay's reference. Usually Ki stands for a measure of affinity in units of concentration, obtained from inhibition or displacement. What is called EC50 is the concentration giving half of the maximal effect.
